Reference: US7101878B1 (Agouron Pharmaceuticals, Inc., priority 1998, dated 2006)

Assays:
human GnRH receptor = biological target: T1, human GnRH receptor (Homo sapiens, UniProt P30968); experiment: Radioligand binding, 125I-GnRH-A displacement, membranes of HEK 293 cells with human GnRH receptor; conditions: read-out: hGnRH IC50
T1 construct: expressed in transfected cells; host or cells: HEK 293 (hGnRH-R/293, from Dr. Stuart Sealfon)
T1 sequence (P30968 1-328): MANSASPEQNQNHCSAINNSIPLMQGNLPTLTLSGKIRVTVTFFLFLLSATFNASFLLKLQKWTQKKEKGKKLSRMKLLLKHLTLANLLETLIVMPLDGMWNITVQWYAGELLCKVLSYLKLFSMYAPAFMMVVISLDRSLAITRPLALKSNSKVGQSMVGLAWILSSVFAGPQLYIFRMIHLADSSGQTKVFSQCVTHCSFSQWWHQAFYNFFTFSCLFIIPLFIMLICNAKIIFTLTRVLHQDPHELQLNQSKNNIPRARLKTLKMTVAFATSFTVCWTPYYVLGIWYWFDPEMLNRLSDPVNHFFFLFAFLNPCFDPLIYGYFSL
Procedure, shortened: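 After filtration and PBS washes, bound radioactivity was counted by scintillation and IC50 derived. Identical conditions applied for non-human receptors.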

rat GnRH receptor = biological target: T2, rat GnRH receptor (Rattus norvegicus, UniProt P30969); experiment: Radioligand binding, 125I-GnRH-A, rat pituitary membranes; design: membranes were prepared from rat pituitary; from tissue; host or cells: rat pituitary; conditions: read-out: rGnRH IC50
T2 sequence (P30969 1-327): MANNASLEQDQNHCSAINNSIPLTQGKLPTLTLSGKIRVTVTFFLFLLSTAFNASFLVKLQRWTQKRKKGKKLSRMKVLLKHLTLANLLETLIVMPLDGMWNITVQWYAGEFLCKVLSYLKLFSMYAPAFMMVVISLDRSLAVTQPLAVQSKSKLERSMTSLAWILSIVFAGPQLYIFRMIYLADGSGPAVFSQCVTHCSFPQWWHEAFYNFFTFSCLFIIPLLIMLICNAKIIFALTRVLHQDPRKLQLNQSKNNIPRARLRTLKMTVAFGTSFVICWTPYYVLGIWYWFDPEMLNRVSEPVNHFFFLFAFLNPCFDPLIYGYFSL
Description: All compounds were diluted in 1% DMSO (final assay concentration) in binding assay buffer. […] Reactions were terminated by rapid filtration onto 96-well Packard GF/C filters soaked in 0.1% polyethyleneimine. Filters were washed three times with PBS buffer, dried and counted on a Packard Topcount by liquid scintillation counting.
Assay conditions were identical for assessing compound activities at other species. […] IC50 values for control peptides and test compounds were calculated utilizing GraphPad Prism™ software.
The reaction mixture was vortexed and incubated for 1 min at room temperature. After one min, the mixture was vortexed and allowed to incubate for an additional minute. 2 ml of 0.5 M acetic acid/1% BSA was added to the reaction tube and the mixture was added to a C18 Sep-Pak cartridge. The cartridge was washed with subsequent washes of 5 ml H2O and 5 ml 0.5M acetic acid and then eluted with 5×1 ml of 60% CH3CN/40% 0.5M acetic acid. The eluate was diluted with 3× volume of HPLC buffer A (0.1% TFA in H2O) and loaded onto a C18 column. […] The radioactive fractions (750 ed/fraction) are collected into clean polypropylene tubes containing 100 μl of 10% BSA. Fractions were assessed for biological activity by radioligand binding.

| SMILES | IC50 (human GnRH receptor) | IC50 (rat GnRH receptor) |
| --- | --- | --- |
| Cc1cc2c(cc1Cc1ccc(C(N)=O)o1)C(C)(C)CCC2(C)C [AXC- 06675] | 2000 nM | 2800 nM |
| Cc1cc2c(cc1Cc1ccc(C(=O)NCc3ccccc3-c3ccccc3)o1)C(C)(C)CCC2(C)C [Compound 67] |  | 1160 nM |
| Cc1ccc(C)c(Cc2ccc(C(=O)NCc3cnc(C)cn3)o2)c1 [Compound 77] | > 10000 nM | 8450 nM |
| Cc1cc2c(cc1Cc1ccc(C(=O)Nc3cccnc3)o1)C(C)(C)CCC2(C)C [Compound 78] |  | 1300 nM |
| Cc1cc2c(cc1Cc1ccc(C(=O)NCc3ccc(-c4csnn4)cc3)o1)C(C)(C)CCC2(C)C [Compound 79] | 250 nM | 370 nM |
| Cc1cnc(CNC(=O)c2ccc(Cc3c(C)cc(C)c(Br)c3C)o2)cn1 [Compound 80] |  | 5610 nM |
| Cc1cc(C)c(Cc2ccc(C(=O)NCc3cnc(C)cn3)o2)c(C)c1 [Compound 81] |  | 8080 nM |
| Cc1cc2c(cc1Cc1ccc(C(=O)NC3CCNC3)o1)C(C)(C)CCC2(C)C (stereo not drawn) [Compound 82] |  | 9200 nM |
| Cc1cc2c(cc1Cc1ccc(C(=O)NCCCN3CCOCC3)o1)C(C)(C)CCC2(C)C [Compound 83] | 620 nM | 1740 nM |
| COc1cc(C)c(Cc2ccc(C(=O)NCc3cnc(C)cn3)o2)cc1OC [Compound 84] | 8000 nM | 770 nM |
| Cc1cc2c(cc1Cc1ccc(C(=O)N3CCC(CNc4nccc(NCC5CCCO5)n4)CC3)o1)C(C)(C)CCC2(C)C (stereo not drawn) [Compound 86.5] | 2570 nM | 2050 nM |
| CCc1cccc(CC)c1NC(=O)c1ccc(Cc2cc3c(cc2C)C(C)(C)CCC3(C)C)o1 [Compound 86] | 8000 nM | 510 nM |
| Cc1cc2c(cc1Cc1ccc(C(=O)NC3CCN(C(=O)OC(C)(C)C)C3)o1)C(C)(C)CCC2(C)C (stereo not drawn) [Compound 88] |  | 2340 nM |
| Cc1cc2c(cc1Cc1ccc(C(=O)N3CCC(Nc4ccnc(NCC5CCCO5)n4)C3)o1)C(C)(C)CCC2(C)C (stereo not drawn) [Compound 94.5] |  | 4830 nM |
| Cc1cc2c(cc1Cc1ccc(C(=O)Nc3ccc(C(N)=O)cc3)o1)C(C)(C)CCC2(C)C [Compound 108] |  | 2740 nM |
| Cc1cc(NS(=O)(=O)c2ccc(NC(=O)c3ccc(Cc4cc5c(cc4C)C(C)(C)CCC5(C)C)o3)cc2)no1 [Compound 114] |  | 7000 nM |
| Cc1cc2c(cc1Cc1ccc(C(=O)NC[C@@H](O)c3ccccc3)o1)C(C)(C)CCC2(C)C [Compound 124] |  | 750 nM |
| COc1ccc(CNC(=O)c2ccc(Cc3cc4c(cc3C)C(C)(C)CCC4(C)C)o2)c2ccccc12 [Compound 129] |  | 1390 nM |

More lines, now with the values ahead:

| IC50 (human GnRH receptor) | IC50 (rat GnRH receptor) | SMILES |
| --- | --- | --- |
| 880 nM | 5300 nM | Cc1cc2c(cc1Cc1ccc(C(=O)NCC3CCNCC3)o1)C(C)(C)CCC2(C)C [Compound 76] |
|  | > 10000 nM | Cc1cc2c(cc1Cc1ccc(C(=O)NC[C@H]3CC[C@H](c4nc5ccccc5[nH]4)CC3)o1)C(C)(C)CCC2(C)C [Compound 85] |
| 270 nM | 3310 nM | Cc1cc2c(cc1Cc1ccc(C(=O)NCC3CCN(C(=O)OC(C)(C)C)CC3)o1)C(C)(C)CCC2(C)C [Compound 87] |
| 250 nM | 2730 nM | Cc1cc2c(cc1Cc1ccc(C(=O)NCC3CCC(CNC(=O)C(F)(F)F)CC3)o1)C(C)(C)CCC2(C)C (stereo not drawn) [Compound 89] |
| 560 nM | 1260 nM | Cc1cc2c(cc1Cc1ccc(C(=O)NCC3CCC(CNCc4c(C)noc4C)CC3)o1)C(C)(C)CCC2(C)C (stereo not drawn) [Compound 90] |
| 8000 nM | 5470 nM | Cc1cc2c(cc1Cc1ccc(C(=O)NCC3CCC(CNc4nccc(Cl)n4)CC3)o1)C(C)(C)CCC2(C)C (stereo not drawn) [Compound 93] |
|  | 1260 nM | Cc1cc2c(cc1Cc1ccc(C(=O)NCc3ccc(CNC(=O)C(F)(F)F)cc3)o1)C(C)(C)CCC2(C)C [Compound 104] |
|  | > 10000 nM | Cc1cc2c(cc1Cc1ccc(C(=O)NC3CCC(NC(=O)C(F)(F)F)CC3)o1)C(C)(C)CCC2(C)C (stereo not drawn) [Compound 110] |
|  | 7780 nM | Cc1cc2c(cc1Cc1ccc(C(=O)NC3CCC(N)CC3)o1)C(C)(C)CCC2(C)C (stereo not drawn) [Compound 112] |
